In patent US6380387B1, “4-Pyrimidinyl-n-acyl-l phenylalanines” (Hoffmann-La Roche Inc., priority 1999, dated 2002):

Key:
alpha4-beta7 = molecular target: T1, alpha4-beta7 (Homo sapiens, UniProt P13612+P26010); assay: Alpha4-Beta7 Assay (MadCAM/RPMI 8866 cell adhesion); type: cell-based; conditions: calcein labeled RPMI 8866 cells adhering to immobilized MadCAM
T1 construct: Sufficient RPMI 8866 cells were removed from stock for assay; endogenous in cells; host or cells: RPMI 8866 cells
T1 sequence (P13612 34-1032): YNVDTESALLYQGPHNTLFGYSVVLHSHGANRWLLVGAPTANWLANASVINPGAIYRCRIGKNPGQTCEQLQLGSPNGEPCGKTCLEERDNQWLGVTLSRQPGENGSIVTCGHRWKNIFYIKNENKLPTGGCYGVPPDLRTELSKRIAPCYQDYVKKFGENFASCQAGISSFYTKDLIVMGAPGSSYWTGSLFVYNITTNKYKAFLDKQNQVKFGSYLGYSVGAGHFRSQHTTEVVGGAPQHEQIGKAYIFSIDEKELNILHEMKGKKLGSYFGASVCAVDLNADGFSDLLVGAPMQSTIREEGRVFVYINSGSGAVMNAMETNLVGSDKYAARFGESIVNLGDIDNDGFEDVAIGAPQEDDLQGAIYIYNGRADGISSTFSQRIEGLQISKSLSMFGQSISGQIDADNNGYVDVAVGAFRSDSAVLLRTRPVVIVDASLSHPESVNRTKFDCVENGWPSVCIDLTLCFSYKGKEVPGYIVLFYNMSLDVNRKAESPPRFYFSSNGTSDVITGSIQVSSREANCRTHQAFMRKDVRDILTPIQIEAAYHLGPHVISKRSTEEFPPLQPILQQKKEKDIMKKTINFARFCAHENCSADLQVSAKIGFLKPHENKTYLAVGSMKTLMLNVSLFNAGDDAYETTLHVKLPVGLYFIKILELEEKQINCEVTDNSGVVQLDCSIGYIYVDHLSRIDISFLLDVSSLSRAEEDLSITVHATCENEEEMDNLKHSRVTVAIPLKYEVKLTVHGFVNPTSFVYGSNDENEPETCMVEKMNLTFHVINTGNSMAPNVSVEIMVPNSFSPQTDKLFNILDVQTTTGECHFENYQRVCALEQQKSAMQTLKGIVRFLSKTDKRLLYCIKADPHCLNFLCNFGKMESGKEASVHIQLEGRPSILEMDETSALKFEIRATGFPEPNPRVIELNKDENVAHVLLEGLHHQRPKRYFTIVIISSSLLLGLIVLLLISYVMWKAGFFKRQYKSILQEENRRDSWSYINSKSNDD
T1 sequence (P26010 20-798): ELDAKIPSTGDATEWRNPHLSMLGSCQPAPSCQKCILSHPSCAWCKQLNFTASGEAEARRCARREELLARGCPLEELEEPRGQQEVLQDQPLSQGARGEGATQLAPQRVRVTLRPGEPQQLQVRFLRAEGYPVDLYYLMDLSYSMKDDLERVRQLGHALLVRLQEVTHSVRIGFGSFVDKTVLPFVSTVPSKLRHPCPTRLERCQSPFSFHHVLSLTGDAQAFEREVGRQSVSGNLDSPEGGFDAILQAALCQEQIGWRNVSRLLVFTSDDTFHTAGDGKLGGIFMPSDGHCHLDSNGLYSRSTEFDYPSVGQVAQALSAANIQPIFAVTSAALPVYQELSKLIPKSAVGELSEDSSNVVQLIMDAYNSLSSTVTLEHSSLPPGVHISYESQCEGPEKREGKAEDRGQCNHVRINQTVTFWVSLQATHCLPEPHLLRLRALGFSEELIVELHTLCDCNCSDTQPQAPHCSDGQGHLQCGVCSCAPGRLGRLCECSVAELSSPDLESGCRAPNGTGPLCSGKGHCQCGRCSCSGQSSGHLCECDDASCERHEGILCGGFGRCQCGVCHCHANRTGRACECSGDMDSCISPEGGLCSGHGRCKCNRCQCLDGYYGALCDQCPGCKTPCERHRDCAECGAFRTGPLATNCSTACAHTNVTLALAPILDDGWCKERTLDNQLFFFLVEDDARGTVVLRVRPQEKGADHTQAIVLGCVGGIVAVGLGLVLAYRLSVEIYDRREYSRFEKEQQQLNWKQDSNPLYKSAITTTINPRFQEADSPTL
Description: Alpha4-Beta7 Assay Protocol
Two weeks to one day prior to the assay, Nunc high-binding F96 Maxisorp immuno plates, #442404 or #439454, were coated with 25 ng/well (0.25 μg/ml) MadCAM in a volume of 100 μl/well. The plates were covered with sealer and wrapped in saran wrap followed by incubation in the refrigerator for at least 24 hours. The coating buffer employed was: 10 mM carbonate/bicarbonate buffer made up from: 0.8 g/L sodium carbonate and 1.55 g/L sodium bicarbonate adjusted to pH 9.6 with 1 N HCl. Assay buffers consisted of the following:
Plates were washed 2× with wash buffer and then blocked at room temperature for at least 1 hour with Blocking Buffer. Sealed plates were sometimes blocked overnight in the refrigerator. Plates were then washed with PBS and hand blotted dry. Remaining liquid was aspirated from the wells.
Sufficient RPMI 8866 cells were removed from stock for assay (2×10^6 cells/ml×10 ml/plate×number of plates) and placed in a centrifuge tube. The tubes were filled to volume with PBS and were spun at 200×G for 8 minutes. The buffer was poured off and the cells were resuspended to 10×10^6/ml in PBS and a stock solution of calcein in DMSO (5mg/mL) was added at 51 μl/ml of cell suspension. The suspension was incubated for 30 minutes at 37° C. in dark. The cells were then washed with PBS. The PBS was poured off and the cells resuspended in cell buffer at a concentration of 2×10^6 cells/mL for plating in the assay.
Stock solution of test compounds at 25× first dilution desired in 100% DMSO were prepared. First dilutions for the standard, as well as test compounds, were 1:25 into straight Binding Buffer, while the remaining serial dilutions were into Dilution Buffer (Binding Buffer/4% DMSO). Stock concentrations and dilutions of compounds for screening were determined by anticipated activity.
For the assay, 129 μl Binding Buffer was plated into first row of wells and 100 μl Dilution Buffer was plated into remaining wells. A 5.44 μl aliquot of each compound was pipetted into appropriate, labeled wells, in triplicate. The compounds were next diluted down the plate (34 μl+100 μl=>4-fold dilution). For controls, 100 μl of Dilution Buffer 100 μl Cell Buffer were plated into the nonspecific background wells (no cells, no compound) and 100 μl Dilution Buffer+100 μl cells were plated into the total binding wells (no compound=100% binding). Labeled cells at 2×10^6 cells/ml, 100 μl/well (=2×10^5 cells/well) were added to each well containing compound. The plates were sealed and incubated in the dark for 45 minutes at room temperature. Following incubation, unbound cells were removed by adding 150 μl PBS/well. The plates were inverted, blotted onto paper towels and washed by gently adding 200 μl PBS to wells and blotting again. Remaining buffer was carefully aspirated from the wells. A final 100 μl PBS was added to each well.
The plates were then read for fluorescence intensity on a Cytofluor 2300 (Millipore) fluorecence measurement system (excitation=485 nm, emission=530 nm). IC50s of each compound were determined by linear regression analysis.

melting point [°C]	IC50 (alpha4-beta7) [µM]	SMILES
243 to 247	< 10	Cc1cccc(Cl)c1C(=O)N[C@@H](Cc1ccc(-c2c(C(F)(F)F)n(C)c(=O)n(C)c2=O)cc1)C(=O)O [Example 22, N-[(2-chloro-6-methylphenyl)carbonyl]-4-[1,3-dimethyl-2,4-dioxo-6-(trifluoromethyl)-5-pyrimidinyl]-L-phenylalanine]
225 to 227	< 10	CCCc1cccc(Cl)c1C(=O)N[C@@H](Cc1ccc(-c2c(C)n(C)c(=O)n(C)c2=O)cc1)C(=O)O [Example 16, N-[(2-chloro-6-propylphenyl)carbonyl]-4-(1,3,6-trimethyl-2,4-dioxo-5-pyrimidinyl)-L-phenylalanine]
122 to 125	< 10	Cn1c(C(F)(F)F)c(-c2ccc(C[C@H](NC(=O)c3c(F)cccc3C(F)(F)F)C(=O)O)cc2)c(=O)n(C)c1=O [Example 23, N-[[2-fluoro-6-(trifluoromethyl)phenyl]carbonyl]-4-(1,3-dimethyl-2,4-dioxo-6-(trifluoromethyl)-5-pyrimidinyl)-L-phenylalanine]
240 to 242	< 0.1	Cc1cccc(Br)c1C(=O)N[C@@H](Cc1ccc(-c2c(C)n(C)c(=O)n(C)c2=O)cc1)C(=O)O [Example 8, N-[(2-bromo-6-methylphenyl)carbonyl]-4-(1,3,6-trimethyl-2,4-dioxo-5-pyrimidinyl)-L-phenylalanine]
